The values below come from US5369125A, “Cholesterol-lowering agents” (Merck & Co., Inc., priority 1993, dated 1994).

The subject of one assay is Ras farnesylation. The note with it: Hancock et al., Casey et al., Schafer et al.; cited from earlier work.
The target of the next assay is T1, Squalene Synthase (Rattus norvegicus, UniProt Q02769).
T1 construct: The livers from these rats were homogenized in 5 volumes (mL/g) of ice cold 50 mM HEPES; from tissue; host or cells: liver microsomes of male Charles River CD rats fed 0.1% lovastatin
T1 sequence (Q02769 1-416): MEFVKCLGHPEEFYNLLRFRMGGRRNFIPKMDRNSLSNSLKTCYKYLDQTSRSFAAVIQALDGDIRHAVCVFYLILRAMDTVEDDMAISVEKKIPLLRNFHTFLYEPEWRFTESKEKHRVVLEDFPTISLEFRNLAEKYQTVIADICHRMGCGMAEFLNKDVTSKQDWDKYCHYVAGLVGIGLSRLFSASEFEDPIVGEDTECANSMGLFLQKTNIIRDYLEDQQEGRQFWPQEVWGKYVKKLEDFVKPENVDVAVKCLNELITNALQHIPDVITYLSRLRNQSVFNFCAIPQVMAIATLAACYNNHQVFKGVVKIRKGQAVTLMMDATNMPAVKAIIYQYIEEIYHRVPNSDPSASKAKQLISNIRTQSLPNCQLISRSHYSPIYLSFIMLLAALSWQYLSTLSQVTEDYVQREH
Kind of assay: Squalene synthase assay (standard in vitro protocol, rat liver microsomes, [4-14C]farnesyl pyrophosphate). In kind it is biochemical. The note with it: 30° C., 20 minutes. On the procedure:
The intrinsic squalene synthase inhibitory activity of representative compounds of this invention was measured by the standard in vitro protocol described below:
Preparation of Rat Liver Microsomes
Male, CHARLES RIVER CD® rats (120 to 150 g) were fed a diet containing 0.1% lovastatin for 4 days. The livers from these rats were homogenized in 5 volumes (mL/g) of ice cold 50 mM HEPES (4-(2-hydroxyethyl)-1-piperazine-ethanesulfonic acid), 5 mM EDTA(ethylenediaminetetraacetic acid) pH 7.5 with a Potter-Elvehjem type tissue grinder. The homogenate was centrifuged twice at 20,000× g for 15 min. at 4° C., discarding the pellet each time. The supernatant was then centrifuged at 100,000× g for 1 hr at 4° C. The resulting microsomal pellet was resuspended in a volume of the above homogenizing buffer equal to one-fifth the volume of the original homogenate. This microsomal preparation has a protein concentration of about 7 mg/mL. The microsomal suspensions were stored in aliquots at -70° C. Squalene synthase activity in these aliquots is stable for a least several months.
Partial Purification of Prenyl Transferase
Prenyl transferase was purified to use in the enzymatic synthesis of radiolabelled farnesyl pyrophosphate. […]
A general note: Liver microsomes are a subcellular fraction often used to study metabolism.

The subject of assay [1] is Aspergillus fumigatus MF4839. Briefly: Broth dilution antifungal assay (MIC), Aspergillus fumigatus. Type of assay: cell-based. The note with it: 24 to 48 hours at 29° C., read-out: Minimum Inhibitory Concentration (MIC). On the procedure: (§1) The compounds are particularly active towards filamentous fungi and yeasts including Candida albicans and Cryptococcus neoformans. The sensitivity of filamentous fungi and yeast was determined using inhibitor dilution assays in microtiter format. The compounds were dissolved in 10% DMSO at 256 μg/mL and serially diluted in (DIFCO) Yeast Nitrogen Base supplemented with 1% glucose (YNBD) by two-fold dilutions yielding final drug concentrations ranging from 128-0.06 μg/mL. The wells were filled with 150 μL of inoculated media. Exponential phase Candida and Cryptococcus cells were diluted in YNBD such that the inoculum was 1.5-7.5×10^3 cells/mL. Aspergillus spores were harvested from a well-sporulated Sabouraud Dextrose Agar (SDA) slant in 0.01% Tween 80 and diluted into media to give an inoculum of 1×10^3 spores/mL. The microtiter dishes were incubated at 35° C. for 24 to 48 hours. […] After recording the MIC of yeasts, plates were shaken on a (SARSTEDT) TPM2 shaker to resuspend the cells and a MIC-2000 inoculator (DYNATECH) was used to transfer a 1.5 μL sample from each well in the microplate to a spot in a single-well tray containing SDA. Inoculated trays were incubated at 35° C. and results were recorded at 24 h or 48 h (for Cryptococcus). The minimum fungicidal concentration (MFC) was defined as the lowest concentration of drug showing no growth or less than 4 colonies per spot. […]
(In broth dilution the organism is exposed to a series of concentrations in liquid medium.)

A further assay concerns Candida albicans MY1055. Kind of assay: Minimum fungicidal concentration, Candida albicans. In kind it is cell-based. The note with it: 35° C. On the procedure: as §1
In assay [2] the test system is Cryptococcus neoformans MY1051. Kind of assay: Minimum fungicidal concentration, Cryptococcus neoformans. In kind it is cell-based. The note with it: 35° C. Here is the method:
as §1

For assay [3], the target named is T2, Farnesyl-protein transferase (Ftase) from bovine brain (Bos taurus, UniProt P29702+P49355).
T2 construct: Farnesyl-protein transferase (Ftase) from bovine brain was chromatographed on DEAE--Sephacel; from tissue; host or cells: bovine brain, partially purified by chromatography
Kind of assay: Farnesyl-transferase assay (inhibition of Ras farnesylation in vitro). The note with it: Ras-CVLS 3.5 μM, 0.25 μM [3H]FPP, partially purified bovine brain enzyme. Type of assay: biochemical. Here is the method:
FARNESYL-TRANSFERASE ASSAY
Farnesyl-protein transferase (Ftase) from bovine brain was chromatographed on DEAE--Sephacel (Pharmacia, 0-0.8M NaCl gradient elution), N-octyl agarose (Sigma, 0-0.6M NaCl gradient elution), and a MONO Q HPLC column (Pharmacia, 0-0.3M NaCl gradient). Ras-CVLS at 3.5 μM, 0.25 μM [^3 H]FPP, and the indicated compounds were incubated with this partially purified enzyme preparation. The Ftase data is a measurement of the ability of the test compound to inhibit Ras farnesylation in vitro.

In brackets after ≈: the same amount, converted by molar mass.

Turning to `CC[C@H](C)C(=O)O[C@H]1CCC=C2C=C[C@H](C)[C@H](CC[C@@H]3C[C@@H](O)CC(=O)O3)[C@H]21` [compactin], in the assay on Ras farnesylation, the “Inhibition of Ras farnesylation in vivo” value is on record as “Inhibition of Ras farnesylation in vivo has been demonstrated”.
`CC[C@H](C)C(=O)O[C@H]1C[C@@H](C)C=C2C=C[C@H](C)[C@H](CC[C@@H]3C[C@@H](O)CC(=O)O3)[C@H]21` [lovastatin]: the “Inhibition of Ras farnesylation in vivo” value with Ras farnesylation is “Inhibition of Ras farnesylation in vivo has been demonstrated”.
Regarding `C=C(CC[C@]12O[C@H](C)[C@@](O)(C(=O)O)[C@](C(=O)O)(O1)[C@H](OC(=O)/C=C/[C@@H](C)C[C@@H](C)CC)[C@H]2O)[C@@H](OC(C)=O)[C@H](C)Cc1ccccc1` [Compound 128, IIA-3-methyl], the values for the IC50 (on Squalene Synthase; in assay [3]) were 3.5 nM and 3300 nM, respectively. Also, in assay [1], the MIC was determined as 16 µg/mL (≈ 24.2 µM). Also, the figures for the MFC (in the assay with Candida albicans MY1055; in assay [2]) were 128 µg/mL (≈ 194 µM) and 0.5 µg/mL (≈ 0.757 µM), respectively.

One may read the IC50 as the concentration that gives 50% inhibition. Broadly, the MFC is the smallest concentration meeting the test's criterion for killing the fungus. High values mean weaker fungicidal potency, low ones greater fungicidal potency.
